What was measured:
[1] = xn = mol fraction of the nth substance listed; settings: 100 kPa, Liquid, x1 = 1; for speed of sound: Frequency=3 MHz, Sing-around technique in a fixed-path interferometer; for mass density: Vibrating tube method
[2] = refractive index (Na D-line) (dimensionless); xn = mol fraction of the nth substance listed; settings: 100 kPa, Liquid, Standard Abbe refractometry, x1 = 1
[3] = 100 kPa, Liquid; for speed of sound: Frequency=3 MHz, Sing-around technique in a fixed-path interferometer; for mass density: Vibrating tube method
[4] = refractive index (Na D-line) (dimensionless); settings: 100 kPa, Liquid, Standard Abbe refractometry

CCCCn1cc[n+](C)c1.F[B-](F)(F)F [1-butyl-3-methylimidazolium tetrafluoroborate] + O=C1CCCN1
Settings | mass density, [1] [kg/m3] | refractive index, [2] | speed of sound, [1] [m/s]
298.15 K | 1198.78 | 1.42058 | 1565.1
303.15 K | 1195.18 | 1.41913 | 1553.2
308.15 K | 1191.6 | 1.41764 | 1541.3
313.15 K | 1188.04 | 1.41621 | 1529.7
318.15 K | 1184.5 | 1.41472 | 1518.2
323.15 K | 1180.98 | 1.4133 | 1506.8

O=C1CCCN1 [2-pyrrolidinone]
Settings | mass density, [3] [kg/m3] | refractive index, [4] | speed of sound, [3] [m/s]
298.15 K | 1107.16 | 1.48591 | 1634.4
303.15 K | 1103.07 | 1.48403 | 1618
308.15 K | 1098.99 | 1.48218 | 1601.6
313.15 K | 1094.9 | 1.48033 | 1585.4
318.15 K | 1090.82 | 1.47841 | 1570.4
323.15 K | 1086.75 | 1.47649 | 1553.5

From the NIST ThermoML archive (doi:10.1016/j.jct.2015.11.009)
